Measurements from US12600808B2, “Crosslinkable prepolymers for chemically stable polymer gels” (priority 2020, dated 2026).

How the values were obtained:
Type in all cases: physicochemical
[1] = Retainment of antioxidants in hydrogel samples, leaching with weekly exchange of heavy water
Description: The retainment properties of antioxidants were tested by preparing and aging antioxidant-doped samples according to application example 3. The heavy water the hydrogels samples were aged in was exchanged weekly, followed by testing of the heavy water. Detection of decomposition was observed by NMR spectroscopy with the formation of decomposition markers, such as formic acid, in the liquid. This was quantified with the addition of an internal standard.
Retainment of BHT and sodium fenozan was studied according to […].

[2] = Antioxidant testing: accelerated aging of antioxidant-doped hydrogels in D2O, decomposition markers by NMR; conditions: antioxidant added to prepolymer formulation (BHT with 1% DMSO)
Source text: The influence of different antioxidants on hydrogel stability was studied by doping prepolymer formulations with specified antioxidants prior to photopolymerization as described in application example 1, followed by accelerated aging experiments in heavy water (D20).
Detection of decomposition was observed by NMR spectroscopy with the formation of decomposition markers, such as formic acid, in the liquid. This was quantified with the addition of an internal standard.

[3] = Photopolymerization efficiency, gravimetric determination of the cured polymer mass; conditions: photopolymerization efficiency test per application example 5 with antioxidant
Description: The photopolymerization efficiency was examined by gravimetric determination of the cured polymer mass: Solutions containing prepolymer prepared according to examples 5-7, 10 or 11 (15% w/w) and photoinitiator (0.1% w/w) were prepared in deionized water. 500 mg of the premixed solutions were loaded into a 2 mL polystyrene cuvette and irradiated for 60 s with a laser (X=405 nm, p=10 mW) from the side. The solid hydrogels were removed, wiped to remove residual liquid, and weighed. The ratio of solid, cure material to liquid, uncured material was calculated and used as a measure for the photopolymerization efficiency. The setup used is depicted in FIG. 2: 301 represents the polystyrene cuvette, 302 the liquid prepolymer composition, 303 the solidified hydrogel and 304 the laser beam.
The photopolymerization efficiency of the prepolymers PEG-DMA (prepared according to example 7), linker-containing PEG-dimethacrylates (example 5-7), PEG-DAAm (example 10), linker-containing PEG-diacrylamides (example 11) and 1OR5-Dimethacrylate (example 12) was compared according to application example 5: […]

Decomposition (decomposition marker such as formic acid) of hydrogel with antioxidant [2] | Decomposition markers in leached solvent ([1]; after 3 weeks of leaching) [mM] | SMILES | Retainment of antioxidant in hydrogel (decomposition markers and antioxidant in leached solvent) ([1]; leaching experiments over three weeks) | Reduction of polymerized mass in presence of antioxidant [3]
no decomposition was observed | – | Cc1cc(C(C)(C)C)c(O)c(C(C)(C)C)c1 [BHT] | lack of decomposition markers and antioxidant in the leached solvent | no reduction of polymerized masses was observed
no decomposition was observed | 1.4 | CC(C)(C)c1cc(CCC(=O)[O-])cc(C(C)(C)C)c1O.[Na+] [sodium fenozan] | – | no reduction of polymerized masses was observed
